These are literature values, as cited in the CATMoS acute toxicity set (Mansouri et al. 2021).

Several values for one entry are separate records, joined by “and”; a condition that tells them apart may be missing. Identical values can stand only once.

The data set in a line: rat acute oral toxicity. To be noted: in vivo. The text has this: […]The data set underlying the modeling effort for this project was initially compiled by NICEATM and U.S. EPA’s CCTE. Briefly, LD50 data were collected from rat acute oral systemic toxicity tests, including limit tests, ranges/confidence intervals, and discrete LD50 values. The full data set included 21,200 LD50 entries for 15,688 substances. […] Data were reviewed to ensure that LD50 values with obvious errors in the extracted data such as unit conversion errors (e.g., comma and decimal separator misplacements) were either fixed or removed. After this review, 16,209 LD50 values remained. Many of the chemicals represented had multiple LD50 entries, requiring that a single representative value per Chemical Abstracts Service Registry Number (CASRN) identifier be defined to facilitate modeling efforts. Based on ATWG feedback and to define the representative LD50 as a protective value while accounting for the distribution across multiple LD50s, the median of the lowest quartile was computed using only discrete LD50 values (omitting limit test data and range and confidence interval data). A detailed summary of the data compilation is available online on the NICEATM webpage dedicated to the collaborative modeling project (NTP 2020).
[…][…] For categorical designations, limit test and range/confidence interval LD50 data were integrated wherever possible. As such, the number of chemicals with end point values/calls varies across the modeling end points (Table 3) based on whether chemicals had representative LD50 values and/or other data. If a chemical had both, the representative value was used to determine categorical calls rather than limit test data. Some data were useable only for certain end points and categories depending on the thresholds. For example, ranges that spanned multiple hazard categories were considered only for the binary (very toxic/nontoxic) end points and omitted from rendering a determination for hazard category assignment.
[…]The final data set comprising 11,992 chemicals was split into training and evaluation sets […], respectively. This process was performed semirandomly by ordering chemicals based on the five end points (categorical and continuous LD50 values) and partitioning every fourth record into the evaluation set accordingly. This approach was taken to ensure an equivalent distribution of the LD50 values and the different hazard categories between the training and the evaluation sets without supervised sampling of the chemicals based on structures (Figure 1A). The sources of the chemical structures were also kept equivalent between the two sets, with chemical structures obtained from DSSTox, being the highest quality, representing over 75% of each set (Figure 1B).
Regarding `O=C(OCCOCCN1CCCCC1)N1c2ccccc2Sc2cccnc21`, the LD50 was 530 mg/kg. Consider `CC(CN1c2ccccc2Sc2ccc(S(=O)(=O)N(C)C)cc21)N(C)C` (stereo not drawn), for which the LD50 was 1320 mg/kg. Take `Oc1cc(Cl)ccc1Oc1ccc(Cl)cc1Cl`: the LD50 is 3700 mg/kg.

For `C[C@]12CCC(=O)C=C1CC[C@@H]1[C@@H]2CC[C@@]2(C)[C@H]1CC[C@]2(C)O`, the LD50 is 2500 mg/kg.

For the compound `C=Cc1ccc(C=O)o1`, the LD50 is 2080 mg/kg. Consider `N=C(O)CCC/N=C(\c1ccc(Cl)cc1)c1cc(F)ccc1O`, for which the LD50 is 1350 mg/kg. In the case of `O=C(CCC(=O)OC1CCCCC1)OC1CCCCC1`, the LD50 was 12000 mg/kg. Consider `CCOP(=O)(OCC)SC(C)C`, for which the LD50 was 179 mg/kg.

Turning to `O=Nc1ccc(N=O)cc1`, the LD50 is 1020 mg/kg.

For `CC(O)c1cccc(N)c1` (stereo not drawn), the LD50 is 3100 mg/kg. As for `C[C@H]1OC(O[C@H]2[C@@H](O)CC(O[C@H]3[C@@H](O)CC(O[C@H]4CC[C@@]5(C)[C@H](CC[C@@H]6[C@@H]5CC[C@]5(C)[C@@H](C7=CC(=O)OC7)[C@@H](OC=O)C[C@]65O)C4)O[C@@H]3C)O[C@@H]2C)C[C@H](O)[C@@H]1O` (stereo partly drawn), the LD50 is 30 mg/kg. For the compound `CCCC(=O)OCN(C)N=O`, the LD50 was 800 mg/kg. `O=c1ccc(O)n[nH]1`: the LD50 is 3900 mg/kg. On to `CCN(CC)C(=O)c1ccccc1O`, for which the LD50 is 580 mg/kg. With `CCOP(=O)(OCC)SCCSCC`, the LD50 is 1.5 mg/kg. Regarding `Cl/C=C/C[N+]12CN3CN(CN(C3)C1)C2`, the LD50 was 500 mg/kg. For `CCCCCC(C)=O`, the LD50 was 1670 mg/kg. For the compound `CCN(CC)C(=O)c1ccccc1C`, the LD50 is 1210 mg/kg. In the case of `CCC(O)(c1ccccc1)c1cccc(C(F)(F)F)c1` (stereo not drawn), the LD50 was 2240 mg/kg. Consider `CN(C)c1ccc(C=C2C(=O)N=C3c4ccccc4N=CN23)cc1`, for which the LD50 is 355 mg/kg. For `O=C(C1CCCCC1)N1CC(=O)N2CCc3ccccc3C2C1` (stereo not drawn), the LD50 is 2840 mg/kg. Consider `CCOC(N)=O`, for which the LD50 is 1810 mg/kg. In the case of `C=CC(=O)NC(C)(C)CS(=O)(=O)O`, the LD50 was 16000 mg/kg.

Take `CCOC(=O)Nc1ccc2c(c1)N(C(=O)CCN1CCN(CCO)CC1)c1ccccc1CC2`: the LD50 was 147 mg/kg.

For the compound `CS(=O)CC(=O)c1ccccn1` (stereo not drawn), the LD50 is 6550 mg/kg. Take `Cc1cc(-n2c(C)nc3ccccc3c2=O)n(-c2ccccc2)n1`: the LD50 was 1800 mg/kg. With `CCOP(=O)(NC(C)=O)SC` (stereo not drawn), the LD50 was 500 mg/kg. In the case of `CN1CCCC(n2nc(Cc3ccc(Cl)cc3)c3ccccc3c2=O)CC1` (stereo not drawn), the LD50 is 310 mg/kg and 580 mg/kg. Consider `CN=C(O)Oc1cccc2c1OC(C)C2` (stereo not drawn), for which the LD50 is 43 mg/kg. For the compound `C=CC(=O)OC(C)COCC(C)OC(=O)C=C` (stereo not drawn), the 50% lethal dose (LD50) was 4600 mg/kg. Take `CNC(=O)Oc1cc(C(C)(C)C)cc(C(C)(C)C)c1`: the 50% lethal dose (LD50) was 1800 mg/kg. On to `Cc1cc(S(=O)(=O)O)c2c(C)ccc(C(C)C)cc1-2`, for which the LD50 was 6380 mg/kg. For the compound `CCOC(C1=NCC(C)(CC)CN1)c1ccccc1` (stereo not drawn), the LD50 was 220 mg/kg. `Nc1ccc(N=Nc2ccccc2)c(N)n1`: the LD50 is 472 mg/kg and 403 mg/kg.

With `CNC(=S)/C=C/c1ccc2c(c1)OCO2`, the LD50 was 230 mg/kg. For `CCCCOCCCOC(=O)COc1ccc(Cl)cc1Cl`, the LD50 was 500 mg/kg. As for `CC1COn2c1nc1ccccc1c2=O` (stereo not drawn), the LD50 was 765 mg/kg. `CC(C(=O)O)c1ccc(N2Cc3ccccc3C2=O)cc1` (stereo not drawn): the LD50 was 84 mg/kg and 60.8 mg/kg. With `COc1cccc(C(=O)CCN[C@@H](C)[C@H](O)c2ccccc2)c1`, the LD50 is 500 mg/kg. Turning to `CC(C)NCC(O)COc1ccccc1C1CCCCC1` (stereo not drawn), the LD50 is 1850 mg/kg. With `O=[N+]([O-])OC1COC2C(O)COC12` (stereo not drawn), the LD50 was 2300 mg/kg.

For `O=C(O)c1ccc(C(=O)O)c2c(C(=O)O)ccc(C(=O)O)c12`, the LD50 is 7500 mg/kg.

`CC(C)Nc1ccccc1`: the LD50 is 560 mg/kg. Consider `Cc1cccc(C)c1NC(=O)CC12CCCN1CCC2`, for which the LD50 is 255 mg/kg. `CC(C)OC(=O)c1ccccc1`: the LD50 is 3730 mg/kg.

Consider `COC(=O)CCC(Br)C(C)=O` (stereo not drawn), for which the LD50 is 600 mg/kg.

Consider `CCOC1CC(C)C=CO1` (stereo not drawn), for which the LD50 is 3400 mg/kg. As for `CCO[Si](CCCC#N)(OCC)OCC`, the LD50 was 4920 mg/kg. In the case of `C=CCc1ccccc1OCC(O)CNC(C)C` (stereo not drawn), the 50% lethal dose (LD50) is 590 mg/kg. Regarding `CC(C)CC(=O)CC1(C)CCC(c2ccoc2)O1` (stereo not drawn), the LD50 is 350 mg/kg. For the compound `O=C(C(F)(F)Cl)C(F)(Cl)Cl`, the LD50 was 277 mg/kg. In the case of `O=Cc1cccc(Oc2ccccc2)c1`, the LD50 is 1220 mg/kg.

With `COC(=O)Nc1nc2cc(C(=O)c3ccccc3)ccc2[nH]1`, the LD50 is 714 mg/kg. For the compound `CCCCC(CC)COC(=O)CS` (stereo not drawn), the 50% lethal dose (LD50) is 303 mg/kg. Turning to `CN(N=O)c1ccc(N=Nc2ccccc2)cc1`, the LD50 is 1200 mg/kg.

As to `CCOC(=O)C1CC2CC1C1OC21` (stereo not drawn), the LD50 is 4760 mg/kg.

With `C[C@H](CCC(=O)O)[C@H]1CC[C@H]2[C@@H]3CC[C@@H]4C[C@H](O)CC[C@]4(C)[C@H]3C[C@H](O)[C@]12C`, the LD50 is 1370 mg/kg and 1000 mg/kg.

For the compound `O=C(OCC(O)CO)c1ccccc1Nc1ccnc2cc(Cl)ccc12` (stereo not drawn), the LD50 was 2300 mg/kg. For the compound `CCCCCCC(C)I` (stereo not drawn), the LD50 is 8200 mg/kg.

Consider `CC(C)(O)Cc1ccccc1`, for which the LD50 was 1280 mg/kg. Regarding `Cc1cccc(OCC(O)CNC(C)(C)C)c1C` (stereo not drawn), the LD50 was 575 mg/kg. Take `COCc1cc(C(C)(C)C)c(O)c(C(C)(C)C)c1`: the LD50 is 10600 mg/kg. On to `CCCCCCCCCCCC(=O)N(CCO)CCO`, for which the LD50 is 2700 mg/kg.

With `CC(C)NNCS(=O)(=O)O`, the LD50 was 330 mg/kg. Take `C[N+]12CCC(c3ccccc3)(CC1)C(=O)C2`: the LD50 was 1480 mg/kg. Take `COC(=S)SSC(Cl)(Cl)Cl`: the LD50 was 1540 mg/kg.

`COP(=S)(OC)SCSCC=C(Cl)Cl`: the LD50 was 85 mg/kg. As to `CNC(=O)Oc1ccc(NC(=O)C(F)(F)Cl)c(C)c1`, the LD50 is 48.5 mg/kg. For the compound `CC(C)=CC1CC(C)CCO1` (stereo not drawn), the LD50 is 4300 mg/kg. Turning to `CCOP(=O)(OCC)OC(C)=CC(=O)OC(C)c1ccccc1` (stereo not drawn), the LD50 is 65 mg/kg.

Turning to `Cc1cn[nH]c1`, the LD50 is 534 mg/kg. Take `CC(C)NCC(O)COc1cccc2c1OCC(O)C2` (stereo not drawn): the LD50 was 1840 mg/kg. With `O=[n+]1c2c(n([O-])c3ccccc31)CCCC2`, the LD50 is 1360 mg/kg. Regarding `CN(C)CCC=C1c2ccccc2CS(=O)c2sccc21` (stereo not drawn), the LD50 is 319 mg/kg. As to `CC(CCO)CCO`, the LD50 is 7780 mg/kg.

`CCC(C)c1ccc(Cl)c(OC(=O)NC)c1` (stereo not drawn): the LD50 is 50 mg/kg. With `CC(C(=O)O)c1ccc(N2CC=CC2)c(Cl)c1` (stereo not drawn), the LD50 was 351 mg/kg.

With `Cc1ccc(S(=O)(=O)NCl)cc1`, the LD50 was 935 mg/kg.

Regarding `CCOc1ccc(NC(=O)CC(C)=O)cc1`, the median lethal dose (LD50) was 176 mg/kg. As for `CC(C)Cc1ccc(CC(=O)O)cc1`, the LD50 is 2300 mg/kg.

For the compound `CCCCOCCCOC(=O)CCOc1cc(Cl)c(Cl)cc1Cl`, the LD50 was 500 mg/kg. `CCOP(=O)(OCC)Oc1ccc([N+](=O)[O-])c(Cl)c1`: the LD50 was 5 mg/kg.

In the case of `CN1CCC2(C)c3cc(OC(=O)NCCCCCCCCN4CCSCC4)ccc3N(C)C12` (stereo not drawn), the LD50 is 23.8 mg/kg. Turning to `CCCCC(CC)C(=O)OCCOCCOCCOC(=O)C(CC)CCCC` (stereo not drawn), the median lethal dose (LD50) was 31000 mg/kg. Consider `CCCCC(O)(Cn1cncn1)c1ccc(Cl)cc1Cl` (stereo not drawn), for which the LD50 is 2190 mg/kg. `C=CCc1ccc(OC(C)=O)c(OC)c1`: the median lethal dose (LD50) was 1670 mg/kg. In the case of `Cc1cccc2c1C(=O)C(c1c(Cl)cccc1Cl)C2=O` (stereo not drawn), the 50% lethal dose (LD50) was 466 mg/kg. Consider `COc1ccc(CN2CCN(C(c3ccc(F)cc3)c3ccc(F)cc3)CC2)c(OC)c1OC`, for which the 50% lethal dose (LD50) is 307 mg/kg.

By LD50 is commonly meant the dose expected to kill half of the subjects tested.
